Source: patent US8268996B2, “Compounds and compositions as cathepsin S inhibitors” (IRM LLC, priority 2004, dated 2012)

Legend:
Assay type in all cases: biochemical
Cathepsin S = Cathepsin S (Homo sapiens, UniProt P25774); assay: Cathepsin S Assay
Description: (§1) Kinetic measurements are performed in a total reaction volume of 30 μl in 384-well microtiter plates. […] Control reactions in the absence of inhibitor are performed in replicates of 24. The reactions are initiated by adding the substrate, acetyl-histidine-proline-valine-lysine-amino carbamoyl coumarin, to a final concentration of 50 μM. The rate of substrate hydrolysis is measured by monitoring the increase in fluorescence at an excitation wavelength of 380 nm and an emission wavelength of 450 nm that results from cleavage of the aniline bond in the substrate by the enzyme. The apparent inhibition constants for the compounds are determined from the enzyme progress curves and are then used to calculate the inhibition constants for competitive inhibitors.

Cathepsin L = Cathepsin L (Homo sapiens, UniProt P07711); assay: Cathepsin L Assay; conditions: for Ki: pH5.5, 20 minutes incubation at room temperature, substrate 20 μM, fluorescence
Description: as §1, with “substrate, acetyl-histidine-lysine-phenylalanine-lysine-amino” for “substrate, acetyl-histidine-proline-valine-lysine-amino”, “of 20” for “of 50”

Cathepsin B = Cathepsin B (Homo sapiens, UniProt P07858); assay: Cathepsin B Assay; conditions: for Ki: pH5.5, 20 minutes incubation at room temperature, substrate 10 μM, fluorescence
Description: as §1, with “of 10” for “of 50”

Cathepsin K = target: T1, Cathepsin K (Homo sapiens, UniProt P43235); assay: Cathepsin K Assay; conditions: for Ki: pH5.5, 20 minutes incubation at room temperature, substrate 40 μM, fluorescence
T1 sequence (P43235 115-329): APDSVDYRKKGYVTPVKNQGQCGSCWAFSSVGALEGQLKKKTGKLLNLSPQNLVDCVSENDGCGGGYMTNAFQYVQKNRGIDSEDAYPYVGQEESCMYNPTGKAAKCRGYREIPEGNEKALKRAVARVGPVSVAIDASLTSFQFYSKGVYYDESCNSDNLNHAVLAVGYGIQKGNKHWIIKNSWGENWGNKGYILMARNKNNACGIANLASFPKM
Description: as §1, with “substrate, acetyl-lysine-histidine-proline-lysine-amino” for “substrate, acetyl-histidine-proline-valine-lysine-amino”, “of 40” for “of 50”

[1] = ratio of isozyme inhibition constant to cathepsin S inhibition constant

Chain of Cathepsin L (P07711 114-333, species assumed): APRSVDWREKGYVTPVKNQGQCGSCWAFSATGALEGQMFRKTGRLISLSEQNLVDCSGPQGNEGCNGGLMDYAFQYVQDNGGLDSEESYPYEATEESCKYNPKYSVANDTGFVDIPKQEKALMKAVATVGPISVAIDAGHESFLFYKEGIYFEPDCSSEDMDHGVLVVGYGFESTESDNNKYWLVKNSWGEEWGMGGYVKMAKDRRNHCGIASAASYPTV
Chain of Cathepsin S (P25774 115-331): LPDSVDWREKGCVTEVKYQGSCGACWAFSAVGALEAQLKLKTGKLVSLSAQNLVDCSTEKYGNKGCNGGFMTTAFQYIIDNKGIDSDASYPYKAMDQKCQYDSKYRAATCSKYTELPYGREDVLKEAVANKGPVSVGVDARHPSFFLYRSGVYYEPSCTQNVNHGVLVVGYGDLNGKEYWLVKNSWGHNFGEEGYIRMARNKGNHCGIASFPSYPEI

Ki (Cathepsin S)	Ki (Cathepsin L)	Ki (Cathepsin B)	Ki (Cathepsin K)	Compound	IC50 (Cathepsin S)	selectivity for cathepsin S over cathepsin L (Cathepsin L; [1])	selectivity for cathepsin S over cathepsin B (Cathepsin B; [1])	selectivity for cathepsin S over cathepsin K (Cathepsin K; [1])
0.488 µM	> 100 µM	> 100 µM	> 100 µM	C[C@H](NC(=O)O[C@@H](CS(=O)(=O)Cc1ccccc1)C(=O)N1CCOCC1)C(=O)c1nc2ccccc2o1 [Example 2, 2-phenylmethanesulfonyl-(1R)-(morpholine-4-carbonyl)ethyl 2-(benzoxazol-2-yl)-(1S)-methyl-2-oxo-ethyl carbamate]	–	–	–	–
0.892 µM	> 100 µM	> 100 µM	> 30 µM	O=C(N[C@H]1COCC1=O)O[C@@H](CC1CCCCC1)C(=O)N1CCOCC1 [Example 5, 2-cyclohexyl-(1S)-(morpholine-4-carbonyl)ethyl 4-oxo-tetrahydro-furan-(3S)-yl carbamate]	–	–	–	–
0.0314 µM	> 22.6 µM	> 30 µM	13.8 µM	N#C[C@H](COCc1ccccc1Cl)NC(=O)O[C@@H](CC1CCCCC1)C(=O)N1CCOCC1 [Example 8, (1S)-cyclohexylmethyl-2-morpholin-4-yl-2-oxo-ethyl 2-(2-chloro-benzyloxy)-(1R)-cyano-ethyl carbamate]	–	–	–	–
0.0008 µM	2.03 µM	5.7 µM	0.211 µM	CCC[C@H](NC(=O)O[C@@H](CC1CCCCC1)C(=O)N1CCCC1)C(=O)c1nc2ccccc2o1 [Example 27, (1S)-cyclohexylmethyl-2-oxo-2-(pyrrolidin-1-yl)-ethyl(1S)-(benzoxazole-2-carbonyl)-butyl carbamate]	–	–	–	–
0.0004 µM	1.31 µM	5.22 µM	0.26 µM	CC[C@H](NC(=O)O[C@@H](CC1CCCCC1)C(=O)N1CCOCC1)C(=O)c1nc2cccnc2o1 [Example 39, 2-cyclohexyl-(1S)-(morpholine-4-carbonyl)ethyl(1S)-(oxazolo[5,4-b]pyridine-2-carbonyl)-propyl carbamate]	–	–	–	–
0.0021 µM	15.3 µM	> 30 µM	2.13 µM	O=C(N[C@H](C(=O)c1nc2ccc(F)cc2o1)C1CC1)O[C@@H](CC1CCCCC1)C(=O)N1CCOCC1 [Example 40, 2-cyclohexyl-(1S)-(morpholine-4-carbonyl)ethyl(1S)-cyclopropyl-2-(6-fluoro-benzoxazol-2-yl)-2-oxo-ethyl carbamate]	–	–	–	–
0.0046 µM	9.5 µM	16.7 µM	0.278 µM	CC[C@H](NC(=O)O[C@H](C(=O)N1CCOCC1)C1CCCCC1)C(=O)c1nc2ccc(F)cc2o1 [Example 42, (1S)-cyclohexyl-1-(morpholine-4-carbonyl)methyl(1S)-(6-fluoro-benzoxazole-2-carbonyl)-propyl carbamate]	–	–	–	–
0.0036 µM	4.65 µM	16 µM	0.25 µM	CC[C@H](NC(=O)O[C@@H](CC1CCCCC1)C(=O)N(C)C)C(=O)c1nc2ccccc2o1 [Example 43, 2-cyclohexyl-(1S)-dimethylcarbamoyl-ethyl(1S)-(benzoxazole-2-carbonyl)-propyl carbamate]	–	–	–	–
0.0005 µM	3.61 µM	9.7 µM	0.483 µM	CCC[C@H](NC(=O)O[C@@H](CC1CCCCC1)C(=O)N1CCOCC1)C(=O)c1nc2ccc(F)cc2o1 [Example 44, 2-cyclohexyl-(1S)-(morpholine-4-carbonyl)ethyl(1S)-(6-fluoro-benzoxazole-2-carbonyl)-butyl carbamate]	–	–	–	–
0.0016 µM	2.21 µM	4.04 µM	0.113 µM	CCC[C@H](NC(=O)O[C@H](C(=O)N1CCOCC1)C1CCCCC1)C(=O)c1nc2ccccc2o1 [Example 46, (1S)-cyclohexyl-1-(morpholine-4-carbonyl)methyl(1S)-(benzoxazole-2-carbonyl)-butyl carbamate]	–	–	–	–
0.0011 µM	2.17 µM	> 30 µM	0.205 µM	CC[C@H](NC(=O)O[C@@H](CC1CCCCC1)C(=O)N1CCOCC1)C(=O)c1nc2ccc(C)cc2o1 [Example 47, 2-cyclohexyl-(1S)-(morpholine-4-carbonyl)ethyl(1S)-(6-methyl-benzoxazole-2-carbonyl)-propyl carbamate]	–	–	–	–
0.0028 µM	2.75 µM	1.88 µM	0.481 µM	CC[C@H](NC(=O)O[C@@H](CC1CCCCC1)C(=O)N1CCOCC1)C(=O)c1nc2cc(Cl)ccc2o1 [Example 48, 2-cyclohexyl-(1S)-(morpholine-4-carbonyl)ethyl(1S)-(5-chloro-benzoxazole-2-carbonyl)-propyl carbamate]	–	–	–	–
0.0018 µM	2.31 µM	4.36 µM	0.482 µM	CCC[C@H](NC(=O)O[C@@H](CC1CCCCC1)C(=O)N1CCOCC1)C(=O)c1nc2cc(F)ccc2o1 [Example 54, 2-cyclohexyl-(1S)-(morpholine-4-carbonyl)ethyl(1S)-(5-fluoro-benzoxazole-2-carbonyl)-butyl carbamate]	–	–	–	–
0.0009 µM	3.97 µM	9.09 µM	0.188 µM	CC[C@H](NC(=O)O[C@@H](CC1CCCCC1)C(=O)N1CCCC1)C(=O)c1nc2ccc(F)cc2o1 [Example 55, (1S)-cyclohexylmethyl-2-oxo-2-(pyrrolidin-1-yl)-ethyl(1S)-(6-fluoro-benzoxazole-2-carbonyl)-propyl carbamate]	–	–	–	–

Compound	Ki (Cathepsin S)	Ki (Cathepsin L)	Ki (Cathepsin B)	Ki (Cathepsin K)	IC50 (Cathepsin S)	selectivity for cathepsin S over cathepsin L (Cathepsin L; [1])	selectivity for cathepsin S over cathepsin B (Cathepsin B; [1])	selectivity for cathepsin S over cathepsin K (Cathepsin K; [1])
O=C(N[C@H](C(=O)c1nc2ccccc2o1)C1CC1)O[C@@H](CC1CCCCC1)C(=O)N1CCOCC1 [Example 1, 2-cyclohexyl-(1S)-(morpholine-4-carbonyl)ethyl 2-(benzooxazol-2-yl)-(1S)-cyclopropyl-2-oxo-ethyl carbamate]	0.0066 µM	> 23.3 µM	> 47.5 µM	5.16 µM	0.0066 µM	at least 100 fold	at least 100 fold	at least 100 fold
